# Measured values published in PubChem BioAssay AID1996.
# Conditions: buffer; pH 7.4; 200.0 µM
row,Structure (SMILES),solubility kinetic [µg/mL]
1,O=[N+]([O-])c1cccc(S(=O)(=O)c2cccc([N+](=O)[O-])c2)c1,0.4
2,CC1CC(C)CN(C(=O)c2ccc(S(=O)(=O)N3CCCCC3)cc2)C1 (stereo not given),5.1
3,CC(C(=O)O)N1CCCCC1.Cl (stereo not given),24.3
4,CSCC[C@H](NC(=O)c1ccco1)c1nnc2ccccn12,> 47.5
5,CCOC(=O)C1=C(COC(=O)c2ccco2)NC(=O)NC1CC (stereo not given),> 48.3
6,COc1ccccc1CNC(=O)C(c1ccccc1)c1ccccc1,< 0.7
7,CC(N=Cc1c(O)n(C2CC2)c(=S)[nH]c1=O)c1ccccc1 (stereo not given),2.6
8,CN(C)CCNC(=S)Nc1ccccc1C(C)(C)C,> 41.9
9,O=C(CCCCCCCCN1C(=O)c2ccccc2C1=O)N1CCOCC1,43.4
10,COc1ccc(OC)c(NC(=S)N2CCCC2)c1,> 40
11,Cc1ccc(C(=O)N2C(=O)C(c3ccccc3)Oc3ccccc32)cc1 (stereo not given),< 0.7
12,O=C1CCCC2=C1C(c1ccccc1)CC(=O)N2c1ccc(F)cc1F (stereo not given),45.8
13,Cc1cccc(-n2c(C)c(-c3ccccc3)[nH]c2=S)c1,4.5
14,O=C(COc1ccccc1Cl)NCCCNC(=O)c1cccnc1,> 52.2
15,O=C(Nc1ccccc1C(=O)N1CCCCCC1)c1ccc(F)cc1,> 51.1
16,O=C(NS(=O)(=O)c1ccc(Cl)cc1)c1ccccc1,26.7
17,O=C(CSc1ccc2c(c1)OCCO2)NCc1ccccc1,44
18,CCN(CC)S(=O)(=O)c1ccc(Cl)c(NC2=NCCCCC2)c1,32.9
19,N#Cc1ccccc1NC(=O)COC(=O)c1c[nH]c2ccccc12,4.4
20,Oc1ccc(Cl)cc1CNc1nccs1,13.9

row,Structure (SMILES),solubility kinetic [µg/mL]
1,COC(=O)Cc1c(O)ccn(CCc2ccccc2)c1=O,> 43.1
2,Cc1ccc(N2C(=O)CC(=O)NC2=O)c(C)c1,> 34.8
3,CCOC(=O)c1cnc2c(ccc3ccccc32)c1N,< 0.3
4,O=C(C[n+]1ccc(C(=O)c2ccccc2)cc1)Nc1ccccc1OC(F)F.[Cl-],59.4
5,CCOC(=O)C1(Cc2ccccc2)C(=O)Nc2ccccc21 (stereo not given),37.1
6,COc1cccc(OC)c1C(=O)Nc1nc(-c2ccccc2)cs1,1.6
7,CS(=O)(=O)Nc1ccccc1C(=O)NCCSc1ccc(Cl)cc1,33.8
8,C#CCOc1ccc2c(c1)c(C(C)=O)c(C)n2Cc1ccccc1,1
9,N#C/C(=C\Nc1ccccn1)S(=O)(=O)c1ccc(Cl)cc1,0.4
10,Cc1ccc(NP(=O)(c2ccccc2)c2nc3ccccc3s2)cc1 (stereo not given),2.2
11,CC(=O)Nc1cccc(C(=O)N2CCN(S(=O)(=O)Cc3ccccc3)CC2)c1,> 60.2
12,COc1ccc(Nc2ncnc3ccc(Br)cc23)c(OC)c1,7.3
13,CCCCC(=O)N1CC(=O)Nc2ccc(F)cc2C1c1ccc(F)cc1 (stereo not given),> 53.8
14,CC1CN(S(=O)(=O)c2ccc(C(=O)N(C)C3CCCCC3)cc2)CC(C)O1 (stereo not given),> 59.2
15,CNc1nc(C)c([N+](=O)[O-])c(Nc2ccc(OC)cc2)n1,0.5
16,CC(O)CCC(=O)NNC(=S)Nc1ccccc1 (stereo not given),> 40.1
17,COC(=O)c1sc(NC(=O)COc2ccccc2C)nc1C,0.6
18,CC(C)NC(=O)c1ccc(-n2c(=S)[nH]c3ccccc3c2=O)cc1,3.9
19,Cc1cccc(OCC(=O)N2CCCc3ccccc32)c1,30.3
20,CCC(C(=O)NCc1cccnc1)c1ccccc1 (stereo not given),> 38.1

row,Structure (SMILES),solubility kinetic [µg/mL]
1,Cc1ccc(C(=O)Cn2cncn2)cc1.Cl,> 35.7
2,CC(=O)Nc1ccc(NC(=O)c2c(C)noc2C)cc1,> 41
3,CSc1ccc(C2Nc3cccc4cccc(c34)N2)cc1,2.4
4,Nc1ccc(-c2nc3ncccc3o2)cc1,> 31.7
5,COc1ccc(CNC(=O)COC(=O)c2ccc(C)c(S(=O)(=O)N3CCOCC3)c2)cc1,7.8
6,COCc1nc2ccccc2n1Cc1ccccc1C,> 40
7,CCOc1ccc(N2C(=O)CNC2=S)cc1,> 35.4
8,Clc1ccc2c(c1)CCc1cccnc1C2=C1CCNCC1,21.6
9,CCOC(=O)c1cccc(NC(=O)CC2Oc3ccccc3NC2=O)c1 (stereo not given),1.8
10,COc1ccc(NC(=O)c2oc3ccccc3c2CSC)cc1S(=O)(=O)N1CCOCC1,3.8
11,COCCNC(=O)/C(C#N)=C/c1ccc(OCc2ccc(F)cc2)cc1,3.4
12,O=C(CCN1C(=O)c2ccccc2C1=O)NCc1ccccc1,> 46.3
13,CCn1c(=O)c(C(=O)NCc2ccc3c(c2)OCO3)c(O)c2ccccc21,< 0.4
14,CCN1CCN(c2nc(Nc3cccc(F)c3)nc(N)c2[N+](=O)[O-])CC1,> 54.2
15,Cc1cccc(N2CCN(Cc3ccc([N+](=O)[O-])o3)CC2)c1C,6.1
16,CNc1ccc(Cl)nn1,> 21.5
17,COc1cccc(OCC(=O)Nc2ccncc2)c1,> 38.7
18,COc1ccc(Br)cc1CN1CCSCC1,29.3
19,N#C/C(=C/c1cc[nH]c1)C(N)=S,> 26.6
20,CC(Cl)C(=O)c1ccc2c(c1)CCN2C(=O)C1CC1 (stereo not given),9.6
